This passage reports Activity results from ChEMBL document CHEMBL2429821, “A Casein kinase 1/Checkpoint kinase 1 pyrazolo-pyridine protein kinase inhibitor as novel activator of the p53 pathway” (Bioorg Med Chem Lett, 2013).

For test [1], the target named is Tyrosine-protein kinase SYK (Homo sapiens) (UniProt P43405). Kind of test: Inhibition of human SYK assessed as residual activity at 1 uM relative to control.
The target of test [2] is SRSF protein kinase 1 (Homo sapiens) (UniProt Q96SB4). Kind of test: Inhibition of human SRPK1 assessed as residual activity at 1 uM relative to control.
SRSF protein kinase 1 (Homo sapiens), sequence (Q96SB4 whole entry): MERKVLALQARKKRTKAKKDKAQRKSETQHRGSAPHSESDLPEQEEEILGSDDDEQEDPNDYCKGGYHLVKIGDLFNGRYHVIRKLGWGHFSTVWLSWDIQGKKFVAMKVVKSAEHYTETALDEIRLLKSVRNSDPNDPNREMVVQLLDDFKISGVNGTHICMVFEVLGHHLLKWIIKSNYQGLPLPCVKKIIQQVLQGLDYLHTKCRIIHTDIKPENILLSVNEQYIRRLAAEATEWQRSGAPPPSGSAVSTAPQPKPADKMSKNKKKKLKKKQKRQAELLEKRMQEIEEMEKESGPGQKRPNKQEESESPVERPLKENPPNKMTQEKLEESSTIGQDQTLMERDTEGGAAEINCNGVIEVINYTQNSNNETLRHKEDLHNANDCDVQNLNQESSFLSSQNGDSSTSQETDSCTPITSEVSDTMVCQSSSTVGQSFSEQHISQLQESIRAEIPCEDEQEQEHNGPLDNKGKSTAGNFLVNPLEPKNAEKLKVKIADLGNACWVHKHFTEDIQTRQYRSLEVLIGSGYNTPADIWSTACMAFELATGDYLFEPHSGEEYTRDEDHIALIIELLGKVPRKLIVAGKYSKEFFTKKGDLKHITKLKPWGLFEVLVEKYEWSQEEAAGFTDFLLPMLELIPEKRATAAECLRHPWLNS
Test [3] deals with T1, Protein kinase C zeta type (Homo sapiens) (UniProt Q05513).
T1 sequence (whole entry): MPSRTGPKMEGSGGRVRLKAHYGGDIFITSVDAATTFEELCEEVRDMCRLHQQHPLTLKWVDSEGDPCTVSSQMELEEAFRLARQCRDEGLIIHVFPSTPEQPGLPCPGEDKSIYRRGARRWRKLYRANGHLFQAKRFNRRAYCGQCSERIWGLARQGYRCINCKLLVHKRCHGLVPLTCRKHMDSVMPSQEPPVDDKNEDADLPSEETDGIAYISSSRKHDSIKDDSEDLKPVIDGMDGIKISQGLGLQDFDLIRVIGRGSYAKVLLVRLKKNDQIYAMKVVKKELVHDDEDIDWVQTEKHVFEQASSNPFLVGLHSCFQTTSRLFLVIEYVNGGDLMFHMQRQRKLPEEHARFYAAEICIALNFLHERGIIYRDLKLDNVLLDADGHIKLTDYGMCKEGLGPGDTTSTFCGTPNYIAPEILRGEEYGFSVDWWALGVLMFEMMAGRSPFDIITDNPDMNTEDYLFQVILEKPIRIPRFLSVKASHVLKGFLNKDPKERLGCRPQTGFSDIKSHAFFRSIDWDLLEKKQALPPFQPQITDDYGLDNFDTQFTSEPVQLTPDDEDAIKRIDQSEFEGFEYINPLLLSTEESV
Kind of test: Inhibition of human PKCzeta assessed as residual activity at 1 uM relative to control.

The target of test [4] is Serine/threonine-protein kinase Nek6 (Homo sapiens) (UniProt Q9HC98). Kind of test: Inhibition of human NEK6 assessed as residual activity at 1 uM relative to control.
Serine/threonine-protein kinase Nek6 (Homo sapiens), sequence (Q9HC98 whole entry): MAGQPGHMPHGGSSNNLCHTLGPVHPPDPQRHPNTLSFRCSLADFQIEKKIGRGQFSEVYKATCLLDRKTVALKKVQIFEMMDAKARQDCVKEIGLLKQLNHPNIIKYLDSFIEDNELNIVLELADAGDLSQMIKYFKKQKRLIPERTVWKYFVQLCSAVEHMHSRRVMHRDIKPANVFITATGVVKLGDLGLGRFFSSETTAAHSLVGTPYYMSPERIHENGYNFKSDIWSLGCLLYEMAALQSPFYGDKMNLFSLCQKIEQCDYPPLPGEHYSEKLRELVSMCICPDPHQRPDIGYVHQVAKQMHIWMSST
Test [5] deals with Insulin receptor (Homo sapiens) (UniProt P06213). Kind of test: Inhibition of human IR assessed as residual activity at 1 uM relative to control.
Insulin receptor (Homo sapiens), sequence (P06213 28-758 limits assumed): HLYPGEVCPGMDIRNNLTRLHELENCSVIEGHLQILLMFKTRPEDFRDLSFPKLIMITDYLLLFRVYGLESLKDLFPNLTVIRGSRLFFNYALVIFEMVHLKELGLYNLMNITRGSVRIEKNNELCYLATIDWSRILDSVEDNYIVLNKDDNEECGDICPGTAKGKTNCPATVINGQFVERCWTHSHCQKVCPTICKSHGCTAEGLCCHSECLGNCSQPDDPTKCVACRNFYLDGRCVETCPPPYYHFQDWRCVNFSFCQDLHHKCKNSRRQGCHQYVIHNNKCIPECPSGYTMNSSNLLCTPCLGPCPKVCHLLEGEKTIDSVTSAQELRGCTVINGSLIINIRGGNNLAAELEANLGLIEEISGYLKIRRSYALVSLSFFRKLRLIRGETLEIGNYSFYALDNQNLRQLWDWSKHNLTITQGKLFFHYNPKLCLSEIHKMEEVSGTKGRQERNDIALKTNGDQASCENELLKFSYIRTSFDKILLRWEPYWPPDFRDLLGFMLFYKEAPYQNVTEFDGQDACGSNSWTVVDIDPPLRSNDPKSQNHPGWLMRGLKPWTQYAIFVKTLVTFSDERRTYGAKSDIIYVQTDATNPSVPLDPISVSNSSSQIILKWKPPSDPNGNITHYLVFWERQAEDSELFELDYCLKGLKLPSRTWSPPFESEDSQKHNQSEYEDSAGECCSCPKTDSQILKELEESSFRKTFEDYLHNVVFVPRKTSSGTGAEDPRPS
Insulin receptor (Homo sapiens), sequence (P06213 763-1382 limits assumed): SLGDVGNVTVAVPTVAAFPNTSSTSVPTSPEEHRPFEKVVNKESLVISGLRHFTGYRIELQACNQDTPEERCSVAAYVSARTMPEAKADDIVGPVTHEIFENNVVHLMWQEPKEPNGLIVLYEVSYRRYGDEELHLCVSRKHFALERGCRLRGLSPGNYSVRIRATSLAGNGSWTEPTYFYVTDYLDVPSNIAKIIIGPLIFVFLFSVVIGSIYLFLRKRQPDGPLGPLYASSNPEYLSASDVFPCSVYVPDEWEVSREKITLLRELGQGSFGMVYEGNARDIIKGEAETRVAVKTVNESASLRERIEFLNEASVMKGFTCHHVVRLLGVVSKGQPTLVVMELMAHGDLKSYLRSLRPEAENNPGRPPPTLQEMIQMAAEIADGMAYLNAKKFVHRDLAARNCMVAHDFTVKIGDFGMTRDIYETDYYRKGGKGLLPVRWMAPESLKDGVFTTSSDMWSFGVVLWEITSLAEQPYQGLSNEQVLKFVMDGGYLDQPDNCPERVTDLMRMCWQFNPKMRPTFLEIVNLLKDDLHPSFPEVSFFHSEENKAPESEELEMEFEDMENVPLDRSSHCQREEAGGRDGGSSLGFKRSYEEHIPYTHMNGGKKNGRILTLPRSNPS
Test [6] has as its target T2, Eukaryotic elongation factor 2 kinase (Homo sapiens) (UniProt O00418).
T2 sequence (whole entry): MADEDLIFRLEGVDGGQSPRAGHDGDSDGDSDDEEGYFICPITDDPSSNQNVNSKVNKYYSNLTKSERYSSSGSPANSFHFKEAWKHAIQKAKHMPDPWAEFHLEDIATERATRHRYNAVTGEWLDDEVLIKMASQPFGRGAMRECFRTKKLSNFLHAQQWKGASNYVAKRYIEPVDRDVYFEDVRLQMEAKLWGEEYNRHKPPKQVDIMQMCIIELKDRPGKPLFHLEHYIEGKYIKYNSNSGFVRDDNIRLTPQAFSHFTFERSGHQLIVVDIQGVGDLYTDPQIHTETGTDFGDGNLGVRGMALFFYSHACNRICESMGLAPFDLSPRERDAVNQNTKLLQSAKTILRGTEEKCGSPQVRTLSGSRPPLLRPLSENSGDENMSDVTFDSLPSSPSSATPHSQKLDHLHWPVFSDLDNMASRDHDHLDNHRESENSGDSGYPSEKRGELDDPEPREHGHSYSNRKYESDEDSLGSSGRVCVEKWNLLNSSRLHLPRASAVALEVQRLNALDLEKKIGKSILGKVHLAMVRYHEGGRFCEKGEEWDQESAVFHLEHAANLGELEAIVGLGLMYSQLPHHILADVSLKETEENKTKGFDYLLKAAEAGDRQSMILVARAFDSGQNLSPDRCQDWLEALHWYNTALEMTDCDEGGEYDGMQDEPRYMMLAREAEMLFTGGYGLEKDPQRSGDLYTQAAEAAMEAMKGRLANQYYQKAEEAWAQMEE
Kind of test: Inhibition of human EF2K assessed as residual activity at 1 uM relative to control.

Test [7] is filed under the species Rattus norvegicus. Kind of test: Inhibition of rat AMPK assessed as residual activity at 1 uM relative to control.
The target in test [8] is T3, MAP kinase-activated protein kinase 5 (Homo sapiens) (UniProt Q8IW41).
T3 sequence (whole entry): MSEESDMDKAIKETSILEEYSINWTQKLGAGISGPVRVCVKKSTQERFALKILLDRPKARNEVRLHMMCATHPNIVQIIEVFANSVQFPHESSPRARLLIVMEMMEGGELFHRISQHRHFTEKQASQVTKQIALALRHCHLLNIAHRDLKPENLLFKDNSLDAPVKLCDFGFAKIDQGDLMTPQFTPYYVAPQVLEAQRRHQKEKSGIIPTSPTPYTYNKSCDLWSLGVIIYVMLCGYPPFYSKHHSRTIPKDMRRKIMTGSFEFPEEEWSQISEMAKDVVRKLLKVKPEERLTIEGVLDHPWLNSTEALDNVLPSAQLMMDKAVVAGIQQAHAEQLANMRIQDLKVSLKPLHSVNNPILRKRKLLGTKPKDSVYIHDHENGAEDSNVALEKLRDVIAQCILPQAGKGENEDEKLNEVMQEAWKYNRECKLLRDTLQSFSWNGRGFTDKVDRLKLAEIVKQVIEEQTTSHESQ
Kind of test: Inhibition of human PRAK assessed as residual activity at 10 uM relative to control.

The species entered for test [9] is Bos taurus. Kind of test: Inhibition of cow PKA assessed as residual activity at 10 uM relative to control.
In test [10] the target is Serine/threonine-protein kinase PAK 4 (Homo sapiens) (UniProt O96013). Kind of test: Inhibition of human PAK4 assessed as residual activity at 10 uM relative to control.
Serine/threonine-protein kinase PAK 4 (Homo sapiens), sequence (O96013 whole entry, looked up): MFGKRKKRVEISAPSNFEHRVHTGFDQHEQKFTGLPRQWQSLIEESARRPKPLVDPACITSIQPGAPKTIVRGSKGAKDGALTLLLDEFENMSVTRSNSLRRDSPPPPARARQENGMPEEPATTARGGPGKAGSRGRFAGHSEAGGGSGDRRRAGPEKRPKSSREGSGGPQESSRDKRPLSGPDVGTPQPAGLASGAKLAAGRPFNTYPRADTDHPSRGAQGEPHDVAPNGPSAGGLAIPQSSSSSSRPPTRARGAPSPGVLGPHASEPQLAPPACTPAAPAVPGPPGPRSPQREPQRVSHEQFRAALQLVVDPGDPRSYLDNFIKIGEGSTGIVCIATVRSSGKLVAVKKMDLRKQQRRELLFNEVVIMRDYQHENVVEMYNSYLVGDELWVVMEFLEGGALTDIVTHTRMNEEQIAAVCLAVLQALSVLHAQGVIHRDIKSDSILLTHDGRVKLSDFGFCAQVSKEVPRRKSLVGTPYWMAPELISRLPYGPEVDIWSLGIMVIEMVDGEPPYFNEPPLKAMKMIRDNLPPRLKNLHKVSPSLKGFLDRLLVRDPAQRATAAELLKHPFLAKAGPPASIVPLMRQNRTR
Test [11] addresses Ribosomal protein S6 kinase alpha-5 (Homo sapiens) (UniProt O75582). Kind of test: Inhibition of human MSK1 assessed as residual activity at 10 uM relative to control.
Test [12] deals with Mitogen-activated protein kinase 8 (Homo sapiens) (UniProt P45983). Kind of test: Inhibition of human JNK1 assessed as residual activity at 10 uM relative to control.
Mitogen-activated protein kinase 8 (Homo sapiens), sequence (P45983 whole entry): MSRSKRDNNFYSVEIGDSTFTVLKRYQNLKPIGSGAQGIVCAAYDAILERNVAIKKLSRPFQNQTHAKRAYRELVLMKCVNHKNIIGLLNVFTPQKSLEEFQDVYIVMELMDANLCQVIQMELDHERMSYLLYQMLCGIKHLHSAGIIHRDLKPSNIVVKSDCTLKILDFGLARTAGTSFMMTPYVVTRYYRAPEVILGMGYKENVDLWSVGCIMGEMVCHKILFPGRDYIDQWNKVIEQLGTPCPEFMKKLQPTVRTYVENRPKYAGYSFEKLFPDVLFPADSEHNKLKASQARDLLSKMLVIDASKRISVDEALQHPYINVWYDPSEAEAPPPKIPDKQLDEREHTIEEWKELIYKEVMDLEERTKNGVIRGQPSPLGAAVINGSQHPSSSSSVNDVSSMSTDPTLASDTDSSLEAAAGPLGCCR
The target of test [13] is T4, Serine/threonine-protein kinase Sgk1 (Homo sapiens) (UniProt O00141).
T4 sequence (whole entry): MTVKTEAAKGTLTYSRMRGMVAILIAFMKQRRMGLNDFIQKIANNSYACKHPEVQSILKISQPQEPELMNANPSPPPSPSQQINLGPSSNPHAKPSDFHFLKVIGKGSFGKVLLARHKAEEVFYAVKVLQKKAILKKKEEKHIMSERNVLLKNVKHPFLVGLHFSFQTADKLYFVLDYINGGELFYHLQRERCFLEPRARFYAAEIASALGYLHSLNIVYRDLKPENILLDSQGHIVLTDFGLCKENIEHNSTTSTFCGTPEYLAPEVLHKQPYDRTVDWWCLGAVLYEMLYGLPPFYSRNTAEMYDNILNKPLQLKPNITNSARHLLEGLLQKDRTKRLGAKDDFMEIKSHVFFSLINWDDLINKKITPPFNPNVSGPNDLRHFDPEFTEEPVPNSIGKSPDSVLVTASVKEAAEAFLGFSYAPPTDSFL
Kind of test: Inhibition of human SGK1 assessed as residual activity at 10 uM relative to control.

Test [14] addresses Serine/threonine-protein kinase pim-1 (Homo sapiens) (UniProt P11309). Kind of test: Inhibition of human PIM1 assessed as residual activity at 10 uM relative to control.

Serine/threonine-protein kinase pim-1 (Homo sapiens), sequence (P11309 whole entry, looked up): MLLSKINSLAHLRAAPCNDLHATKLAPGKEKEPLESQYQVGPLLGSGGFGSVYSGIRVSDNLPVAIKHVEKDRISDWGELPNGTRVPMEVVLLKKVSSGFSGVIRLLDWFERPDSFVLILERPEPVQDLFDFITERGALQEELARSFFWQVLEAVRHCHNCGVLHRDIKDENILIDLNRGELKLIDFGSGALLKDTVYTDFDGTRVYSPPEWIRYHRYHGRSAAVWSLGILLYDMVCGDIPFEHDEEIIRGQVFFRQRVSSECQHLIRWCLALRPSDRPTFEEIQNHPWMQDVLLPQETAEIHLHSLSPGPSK
Ribosomal protein S6 kinase alpha-5 (Homo sapiens), sequence (O75582 whole entry, looked up): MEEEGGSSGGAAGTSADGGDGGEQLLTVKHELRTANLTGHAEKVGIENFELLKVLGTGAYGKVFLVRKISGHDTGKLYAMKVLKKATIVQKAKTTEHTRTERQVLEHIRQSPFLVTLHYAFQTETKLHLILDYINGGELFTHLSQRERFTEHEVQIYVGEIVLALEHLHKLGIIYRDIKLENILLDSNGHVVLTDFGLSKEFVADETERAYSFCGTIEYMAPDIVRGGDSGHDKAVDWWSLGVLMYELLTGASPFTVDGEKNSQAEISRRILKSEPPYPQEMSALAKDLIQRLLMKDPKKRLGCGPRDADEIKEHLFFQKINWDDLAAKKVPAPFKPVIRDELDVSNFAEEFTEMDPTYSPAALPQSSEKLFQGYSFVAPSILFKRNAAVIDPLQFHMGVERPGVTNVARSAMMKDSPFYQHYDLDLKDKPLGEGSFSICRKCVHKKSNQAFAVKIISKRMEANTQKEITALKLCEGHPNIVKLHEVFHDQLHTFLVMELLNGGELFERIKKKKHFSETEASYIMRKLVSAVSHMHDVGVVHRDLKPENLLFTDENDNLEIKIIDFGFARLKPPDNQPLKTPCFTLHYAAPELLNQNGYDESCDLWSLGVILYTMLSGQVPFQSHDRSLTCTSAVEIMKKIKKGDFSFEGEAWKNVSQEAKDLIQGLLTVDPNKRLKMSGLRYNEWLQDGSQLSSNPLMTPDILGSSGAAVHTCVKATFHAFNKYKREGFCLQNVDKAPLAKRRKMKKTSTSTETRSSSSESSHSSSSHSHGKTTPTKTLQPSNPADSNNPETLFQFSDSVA

Take `CC(=O)Nc1nccc(-c2c(-c3ccccc3)noc2C)n1`: the Activity in [1] is 69%; in test [2], 87.7%; in [3] it was 93.7%; in test [4], 64.9%; in test [5], 101%; in test [6], 83.2%. For the same compound, the Activity in test [7] was 82.8%; in test [8] it was 83.7%; in [9], 92.8%; in [10], 106%; in [11], 67.1%; in test [12] it was 70.3%. Also, the values for the Activity in [13] and in test [14] were 21.4% and 88.9%, respectively.

`CCCC(=O)Nc1n[nH]c2ncc(-c3cccnc3)cc12`: the Activity came out at 99% in test [1]; 93% in [2]; 84% in test [3]; 86% in test [4]; 101% in test [5]; 106% in [6]. Besides, the Activity worked out at 93% in [7]; 88% in [8]; 94% in test [9]; 79% in test [10]; 78% in [11]; 92% in test [12]. The results for the Activity in [13] and in [14] were 82% and 53%, respectively.

`CC(=O)Nc1cccc(-c2cnc3[nH]nc(C)c3c2)c1`: the Activity was determined as 115% in [1]; 95.9% in test [2]; 120% in test [3]; 77.3% in [4]; 106% in [5]; 112% in test [6]. In addition, the Activity in [7] was found to be 74.3%; in [8], 89.4%; in test [9] it was 83.3%; in [10], 51.9%; in [11] it was 63.5%; in test [12], 66.9%. The Activity is 61.9% in [13] and 28.2% in test [14].
